Data on 24 compounds can be found in ChEMBL document CHEMBL1146166, “Discovery and design of benzimidazolone based inhibitors of p38 MAP kinase” (Bioorg Med Chem Lett, 2006).

≈ marks a conversion by molar mass, not a printed value.

One data set deals with THP-1. Kind of data set: Inhibition of LPS-stimulated TNFalpha production in THP1 cells. The class given is functional, cell-based. Conditions: Homo sapiens.
For `O=c1[nH]c2cc(Nc3cc(Cl)cc(Cl)c3)ccc2n1CC1CCCCC1`, the EC50 is greater than 10 µM.

In turn, `O=c1[nH]c2cc(Nc3ccccc3)ccc2n1C1CCNC1` (configuration not stated) had an EC50 of 1.1 µM.

On to `N=C(N)c1ccc(Cn2c(=O)[nH]c3cc(C(=O)c4ccccc4)ccc32)cc1`, for which the EC50 was greater than 10 µM. Regarding `O=c1[nH]c2cc(Nc3ccccc3)c(N3CCNCC3)cc2n1CC1CCCCC1`, the EC50 came to 0.15 µM.

`O=C(c1ccccc1)c1ccc2c(c1)[nH]c(=O)n2CC1CCCCC1` registered an EC50 of 0.88 µM.

The compound `O=c1[nH]c2cc(Nc3ccccc3)ccc2n1Cc1ccccc1` showed an EC50 of 0.32 µM. Same read-out and setting: in the case of `CC(C)(C)n1c(=O)[nH]c2cc(Nc3ccccc3)ccc21` it was 0.074 µM; in that of `O=c1[nH]c2cc(Nc3ccccc3)ccc2n1CC1CCCCC1`, 0.27 µM. With `Cc1ccccc1Nc1ccc2c(c1)[nH]c(=O)n2CC1CCCCC1`, the EC50 turned out to be 0.064 µM.

For `O=c1[nH]c2cc(Oc3ccccc3)ccc2n1CC1CCCCC1`, a half-maximal response (EC50) required 0.25 µM. `CC(C)(CN)n1c(=O)[nH]c2cc(Nc3ccccc3)ccc21` displayed an EC50 of 3.4 µM. Still for that read-out and setting: for `O=c1[nH]c2cc(Nc3ccc(F)cc3)ccc2n1CC1CCCCC1` the value was 0.074 µM. The same measure, in the same setting: in the case of `O=c1[nH]c2cc(Nc3ccc(F)c(F)c3)ccc2n1CC1CCCCC1` it was 0.42 µM. As to `Cc1ccccc1Nc1cc2[nH]c(=O)n(CC3CCCCC3)c2cc1N1CCN(C)CC1`, the EC50 is 0.18 µM. The compound `O=c1[nH]c2cc(Nc3ccc(F)cc3F)ccc2n1CC1CCCCC1` registered an EC50 of 0.046 µM. Compound `CN1CCN(c2cc3c(cc2Nc2ccccc2)[nH]c(=O)n3CC2CCCCC2)CC1` gave an EC50 of 0.15 µM. For `O=c1[nH]c2cc(Nc3cccc(F)c3)ccc2n1CC1CCCCC1`, the EC50 was 0.19 µM. The compound `O=c1[nH]c2cc(Nc3ccccc3)ccc2n1Cc1c(F)cccc1F` gave an EC50 of 0.22 µM. `O=C(c1ccccc1)c1ccc2c(c1)[nH]c(=O)n2Cc1ccccc1` showed an EC50 of 1 µM. Take `O=c1[nH]c2cc(Nc3ccccc3F)ccc2n1CC1CCCCC1`: it took 0.066 µM to reach a half-maximal effect (EC50). With `Cn1c(=O)[nH]c2cc(C(=O)c3ccccc3)ccc21`, the EC50 is greater than 5 µM. In turn, `O=c1[nH]c2cc(Nc3cccc(C(F)(F)F)c3)ccc2n1CC1CCCCC1` had an EC50 of 2.3 µM.

In the case of `O=c1[nH]c2cc(Nc3ccccc3)ccc2n1C1CCCC1`, the EC50 amounted to 0.15 µM. For the compound `O=C(c1ccccc1)c1ccc2[nH]c(=O)[nH]c2c1`, the EC50 was greater than 5 µM.

Tested on in the next data set: not listed separately
Kind of data set: Aqueous solubility at pH 7.4. The class given is physicochemical.
Details: not given
As for `O=c1[nH]c2cc(Nc3ccccc3)ccc2n1CC1CCCCC1`, the solubility is 0.2 µM (≈ 0.0643 µg/mL).

As for `CN1CCN(c2cc3c(cc2Nc2ccccc2)[nH]c(=O)n3CC2CCCCC2)CC1`, the solubility is 5.7 µM (≈ 2.39 µg/mL).

The target of another data set is Mitogen-activated protein kinase 9 (Homo sapiens, UniProt P45984). Kind of data set: Inhibition of Jnk2alpha2.
Chain of Mitogen-activated protein kinase 9 (P45984 whole entry): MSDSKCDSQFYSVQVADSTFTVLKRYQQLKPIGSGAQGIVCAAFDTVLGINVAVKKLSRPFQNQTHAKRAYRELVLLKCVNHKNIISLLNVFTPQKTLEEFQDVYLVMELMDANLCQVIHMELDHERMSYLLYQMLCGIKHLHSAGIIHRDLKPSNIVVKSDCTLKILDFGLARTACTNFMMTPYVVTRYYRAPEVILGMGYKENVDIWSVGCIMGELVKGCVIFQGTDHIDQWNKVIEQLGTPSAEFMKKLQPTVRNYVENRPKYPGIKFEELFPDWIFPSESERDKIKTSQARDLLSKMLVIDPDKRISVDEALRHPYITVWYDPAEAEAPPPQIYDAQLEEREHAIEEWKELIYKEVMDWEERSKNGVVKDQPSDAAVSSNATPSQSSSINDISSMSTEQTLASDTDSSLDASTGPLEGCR
Details: not given
`O=c1[nH]c2cc(Nc3ccc(F)cc3F)ccc2n1CC1CCCCC1` returned an IC50 of 5.5 µM.

The term EC50 denotes the concentration that produces a half-maximal response. The low end stands for an effect from little substance, the high end for a need for much substance. By solubility is commonly meant the concentration that dissolves in the medium under given conditions. High values mean a readily soluble substance, low ones a poorly soluble substance. One may read the IC50 as the concentration that inhibits the measured activity by half. Lower therefore signals higher potency.
